Source: PubChem BioAssay (NCI)
“And” between values parts separate entries of the source, which are not always exact repeats. Identical values can stand only once.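 Growth conditions: 96-well plates. Treatment: test compound, 48 hours, 5 concentrations. Analysis: linear interpolation between bracketing concentrations; unreached endpoints set to highest concentration. At the GI50, growth is halved. At the TGI there is no net growth.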

Columns and labels:
Assay in all cases: inhibition of tumour cell growth, NCI panel, 48 h
A498 renal = test system: A498 renal
CCRF-CEM leukemia = test system: CCRF-CEM leukemia
HCC-2998 colon = test system: HCC-2998 colon
HS 578T breast = test system: HS 578T breast
IGROV1 ovarian = test system: IGROV1 ovarian
MDA-MB-231 breast = test system: MDA-MB-231 breast
MDA-MB-435 = test system: MDA-MB-435
SK-MEL-5 melanoma = test system: SK-MEL-5 melanoma
SK-OV-3 ovarian = test system: SK-OV-3 ovarian
SNB-19 CNS = test system: SNB-19 CNS

| SMILES | GI50 (A498 renal) | TGI (A498 renal) | GI50 (CCRF-CEM leukemia) | TGI (CCRF-CEM leukemia) | GI50 (HCC-2998 colon) | TGI (HCC-2998 colon) | GI50 (HS 578T breast) | TGI (HS 578T breast) | GI50 (IGROV1 ovarian) | TGI (IGROV1 ovarian) | GI50 (MDA-MB-231 breast) | TGI (MDA-MB-231 breast) | GI50 (MDA-MB-435) | TGI (MDA-MB-435) | GI50 (SK-MEL-5 melanoma) | TGI (SK-MEL-5 melanoma) | GI50 (SK-OV-3 ovarian) | TGI (SK-OV-3 ovarian) | GI50 (SNB-19 CNS) | TGI (SNB-19 CNS) |
| --- | --- | --- | --- | --- | --- | --- | --- | --- | --- | --- | --- | --- | --- | --- | --- | --- | --- | --- | --- | --- |
| O=C1/C(=C/c2ccc(Cl)cc2)CN(C(=O)CCN2CCC(=NO)CC2)C/C1=C\c1ccc(Cl)cc1 | 1.15 µM | 2.41 µM | 0.317 µM | > 22.3 µM | 0.699 µM | 1.88 µM | 1.27 µM | 6.43 µM | 0.807 µM | 2.05 µM | 0.637 µM | 1.89 µM | 0.631 µM | 1.76 µM | 1.66 µM | 3.1 µM | 1.94 µM | 4.21 µM | 0.817 µM | 2.17 µM |
| COc1cc(OC)c(F)c(COc2cnc(Nc3cnn(CCO)c3)nc2)c1F | < 0.0107 µM | 0.138 µM | 0.669 µM | > 100 µM | 2.51 µM | > 100 µM | 0.35 µM | 3.43 µM | 0.595 µM | > 100 µM | 1.38 µM | 7.64 µM | 0.2 µM | 0.59 µM | 0.501 µM | 2.71 µM | 0.845 µM | 5.67 µM | 0.796 µM | > 100 µM |
| c1ccc2cc(C[n+]3ccn(Cc4ccc5ccccc5n4)c3)ccc2c1 | 0.492 µM and 2.49 µM | 3.9 µM and 24.1 µM | 0.728 µM and 3.64 µM | 11 µM and 16.4 µM | 0.389 µM and 2.65 µM | 3.76 µM and 12.7 µM | 1.25 µM and 4.49 µM | 12.2 µM and 20.3 µM | 0.481 µM and 2.22 µM | 3.19 µM and 9.03 µM | 0.432 µM and 2.22 µM | 1.97 µM and 8.2 µM | 0.312 µM and 2.46 µM | 1.31 µM and 10.6 µM | 0.216 µM and 1.21 µM | 0.532 µM and 2.5 µM | 0.671 µM and 3.64 µM | 4.3 µM and 17.7 µM | 0.338 µM and 3.05 µM | 11 µM and 13.2 µM |
| COc1ccc2c(c1)C(=O)c1c-2c(N2CCN(C(=O)CNCCN(C)C)CC2)nc2ccccc12 | 2.14 µM | 5 µM | 1.39 µM | 4.5 µM | 1.37 µM | 2.98 µM | 2.67 µM | 9.87 µM | 1.11 µM | 2.69 µM | 1.79 µM | 3.61 µM | 2.38 µM | 4.98 µM | 4.49 µM | 16.7 µM | 14 µM | 27.5 µM | 4.99 µM | 19.8 µM |
| COc1ccc2c(c1)[nH]c(=O)c1c3cc(OC)c(OC)cc3cn21 | < 0.01 µM | 0.072 µM | < 0.0114 µM | 1.12 µM | < 0.01 µM | 0.0768 µM | < 0.01 µM | < 0.0231 µM | < 0.0178 µM | 0.233 µM | 0.0219 µM | 1.06 µM | < 0.01 µM | < 0.01 µM | < 0.01 µM | 11.2 µM | < 0.0111 µM | 17.5 µM | 0.016 µM | 22.3 µM |
| O=C(Nc1ccc(Oc2ccc(NC(=O)Nc3ccc([N+](=O)[O-])cc3)cc2)cc1)Nc1ccc([N+](=O)[O-])cc1 | 1.97 µM | 7.23 µM | 0.61 µM | 3.22 µM | 2.28 µM | 8.02 µM | 2.34 µM | 7.98 µM | 1.9 µM | 4.71 µM | 1.65 µM | 7.2 µM | 2.16 µM | 8.65 µM | 1.66 µM | 3.32 µM | 2.27 µM | 7.51 µM | 3.34 µM | > 100 µM |
| CCSc1ccc([C@@H]2[C@@H](N)C(=O)N2c2cc(OC)c(OC)c(OC)c2)cc1 | 0.0563 µM | 8.29 µM | 0.0439 µM | > 100 µM | 0.755 µM | > 100 µM | 0.18 µM | > 100 µM | 1.43 µM | > 100 µM | 0.376 µM | > 100 µM | 0.0277 µM | 0.102 µM | 0.0783 µM | > 100 µM | 0.0545 µM | > 100 µM | 0.0715 µM | > 100 µM |
| CC(C)=CC(=O)N[C@@H]1CC2CCC3C(CC[C@@]4(C)C3CC[C@@H]4C(C)N(C)C)[C@@]2(C)C[C@@H]1O (stereo not given in full) | 5.19 µM | 28.8 µM | 4.85 µM | 28.9 µM | 5.44 µM | 16.8 µM | 6.12 µM | 25.3 µM | 5.54 µM | 25.1 µM | 5.77 µM | 19.8 µM | 2.9 µM | 10.1 µM | 1.57 µM | 4.17 µM | 10.4 µM | 24.6 µM | 17.8 µM | 60.4 µM |
| CCOc1cc2c(=O)oc3c(OC)ccc4ccc(c1OC)c2c43 | – | > 100 µM | – | > 100 µM | – | > 100 µM | – | > 100 µM | – | > 100 µM | – | 97.5 µM | – | > 100 µM | – | > 100 µM | – | > 100 µM | – | > 100 µM |
| CC(=O)Nc1ccc(-c2csc(Nc3cccc(-c4csc(-c5ccccc5)n4)c3)n2)cc1 | 46 µM | > 50 µM | > 50 µM | > 50 µM | 12.5 µM | > 50 µM | 37.2 µM | > 50 µM | 21.5 µM | > 50 µM | 13.5 µM | 37.9 µM | 15.2 µM | > 50 µM | 18.7 µM | > 50 µM | > 50 µM | > 50 µM | 49.7 µM | > 50 µM |
| CCOC(=O)c1ccccc1SC(C[N+](=O)[O-])c1ccccc1 (stereo not given) | 3.63 µM | 16 µM | 4.64 µM | 36.2 µM | 1.86 µM | 3.36 µM | 12.6 µM | 47.1 µM | 3.88 µM | 15 µM | 9.1 µM | 21.8 µM | 2.91 µM | 11.4 µM | 5.09 µM | 17.4 µM | 12.7 µM | 26.5 µM | 11.7 µM | 23.9 µM |
| CN(C)CC1CCCCCC(Br)C1=O (stereo not given) | – | > 100 µM | – | 3.15 µM | – | 25.7 µM | – | 61.5 µM | – | > 69.4 µM | – | 30.9 µM | – | 34.1 µM | – | 30.3 µM | – | > 100 µM | – | > 100 µM |
| O=C(Cc1ccc(Nc2ccnc(C(F)(F)F)c2)cc1)Nc1cc(Cl)ccc1O | 3.03 µM | 10.6 µM | 1.68 µM | 7.63 µM | 13.6 µM | 28.4 µM | 3.7 µM | 26 µM | 6.34 µM | 30 µM | 4.92 µM | 24.2 µM | 4.33 µM | 17.5 µM | 3.86 µM | 14.7 µM | 15.8 µM | 54.9 µM | 5.31 µM | 38 µM |
| O=C(Oc1ccccc1Cl)c1ccccc1Nc1cccc(C(F)(F)F)c1 | 24.8 µM | 54.8 µM | 3.42 µM | 12.3 µM | 12.6 µM | 26.7 µM | 26.1 µM | 67.1 µM | 28 µM | > 100 µM | 20.2 µM | 48.3 µM | 11.7 µM | 32.3 µM | 14.8 µM | 30.8 µM | 47.5 µM | > 100 µM | 73.2 µM | > 100 µM |
| CC#CC#C/C=C1\C=CC2(OC=CC2OC(C)=O)O1 (stereo not given) | – | > 100 µM | – | 40.3 µM and 72.9 µM | – | 69.9 µM and 45.9 µM | – | > 100 µM | – | > 100 µM | – | 41.9 µM | – | > 100 µM | – | 36.8 µM | – | > 100 µM | – | > 100 µM |
| CC[C@H](C)[C@H](NC(=O)NC(C)(C)C)C(=O)N(C)[C@H](C[C@@H](OC(C)=O)c1nc(C(=O)N[C@@H](Cc2ccccc2)C[C@H](C)C(=O)OC)cs1)C(C)C | 0.154 µM | 4.31 µM | 0.718 µM | > 25 µM | 0.507 µM | > 25 µM | 0.792 µM | > 15.3 µM | 0.556 µM | > 25 µM | 0.726 µM | 2.98 µM | 0.0884 µM | 0.486 µM | 0.139 µM | 0.604 µM | 0.734 µM | > 25 µM | 1.12 µM | > 25 µM |
| Nc1nccc2c1ccn2-c1cccc(NC(=O)c2ccc(N3CCOCC3)c(C(F)(F)F)c2)c1 | 0.304 µM | 2.05 µM | 1.01 µM | > 50 µM | 1.63 µM | > 44.5 µM | 0.34 µM | 2.43 µM | 0.869 µM | > 46.5 µM | 0.874 µM | 2.86 µM | 0.163 µM | > 50 µM | 0.386 µM | 1.75 µM | 0.741 µM | 6.52 µM | 1.58 µM | > 50 µM |
| O=C1NC(=O)[C@@H](c2c[nH]c3ccccc23)[C@@H]1c1c[nH]c2ccccc12 | > 25 µM | > 25 µM | > 25 µM | > 25 µM | > 25 µM | > 25 µM | 24.8 µM | > 25 µM | > 25 µM | > 25 µM | > 25 µM | > 25 µM | > 25 µM | > 25 µM | > 25 µM | > 25 µM | > 25 µM | > 25 µM | > 25 µM | > 25 µM |
| CCOC(=O)Cn1c(-c2nonc2NC(=O)c2ccccc2F)nc2ccccc21 | 68 µM | > 100 µM | > 100 µM | > 100 µM | 31.7 µM | > 100 µM | 32.4 µM | > 100 µM | 9.85 µM | > 100 µM | 28.7 µM | > 100 µM | 2.25 µM | > 100 µM | 0.539 µM | > 100 µM | 21.3 µM | > 100 µM | 5.58 µM | > 100 µM |
